{"source": "patent US7745645B2", "about": "“Sulfonamide derivatives of xanthene compounds” (Pierce Biotechnology, Inc., priority 2007, dated 2010)", "test_system": "A549 cells", "experiment": "High Content Screening measurement of p53 induction", "format": "cell-based", "conditions": "5 μM camptothecin, 18-20 hours", "protocol": "Any of the above described compounds are conjugated to antibodies and used for HCS measurement of p53 induction. A549 cells are seeded at 5,000 cells/well on 96 well microplates one day before treating them with different concentrations of camptothecin. In the presence of the drug, cells are incubated for 18-20 hours at 37° C., 5% CO2 in a humidified incubator. Cells are then fixed with 4% paraformaldehyde, permeabilized with 0.1% Triton X-100, and then labeled with rabbit p53 primary antibody and goat-anti-rabbit-conjugate of one of the above-described compounds. Cell nuclei are labeled with Hoechst 33342. The samples are imaged and quantitatively analyzed on an ArrayScan® HCS Reader (Cellomics, Inc. Pittsburgh Pa.). […] Camptothecin treated cells show bright p53 labeling in the nuclei.", "data": [{"smiles": "CC[C@@]1(O)C(=O)OCc2c1cc1n(c2=O)Cc2cc3ccccc3nc2-1", "note": "[camptothecin]", "values": [{"measurement": "p53 induction (fluorescence images)", "result": "p53 induction in the nucleus"}]}]}
